In patent publication US10723705B2, “Heterocyclic compounds and uses thereof” (Incyte Corporation, priority 2015, dated 2020):
Where two headings read alike, the source gives them in different places.

Target: Human recombinant Histone Deacetylase 8 (HDAC8) (Homo sapiens (Human), UniProt Q9BY41)
Test: HDAC8 Enzymatic Assay (HDAC-Glo I/II luminescence)
Format: biochemical
In short: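 Human recombinant HDAC8 (1.5 nM final) preincubated with compound for 30 min, then reacted with 50 μM Boc-GAK(Ac)-aminoluciferin plus trypsin-containing developer for 15 min at room temperature, pH 8.0, 0.5% DMSO. Luminescence read-out; IC50 from percent control activity versus log concentration.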

[1] = class symbols, Table 14, read-out: HDAC8 IC50

Chain of Human recombinant Histone Deacetylase 8 (HDAC8) (Q9BY41 whole entry): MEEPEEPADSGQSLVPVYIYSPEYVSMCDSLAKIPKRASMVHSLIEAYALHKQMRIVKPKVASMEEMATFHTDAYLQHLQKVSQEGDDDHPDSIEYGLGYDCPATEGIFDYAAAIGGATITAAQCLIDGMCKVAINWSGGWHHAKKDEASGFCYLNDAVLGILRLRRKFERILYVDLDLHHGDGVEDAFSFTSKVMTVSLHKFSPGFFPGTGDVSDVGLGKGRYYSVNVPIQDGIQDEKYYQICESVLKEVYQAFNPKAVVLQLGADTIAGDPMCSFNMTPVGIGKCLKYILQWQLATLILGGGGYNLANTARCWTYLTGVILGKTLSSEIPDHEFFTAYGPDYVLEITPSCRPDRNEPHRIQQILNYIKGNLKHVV

| IC50 [1] | IC50 (HDAC8, read-out: IC50) | Structure (SMILES) |
| --- | --- | --- |
| 0.2 to 0.5 µM |  | COC1CCN(Cc2cccc3cn(C(Cc4ccccc4)C(=O)NO)nc23)CC1 (centres unmarked) [Compound I-0184, N-hydroxy-2-(7-((4-methoxypiperidin-1-yl)methyl)-2H-indazol-2-yl)-3-phenylpropanamide] |
| > 0.5 µM |  | O=C(NO)C(Cc1ccccc1)n1ccc2nc(Cl)ccc21 (centres unmarked) [Compound I-0193, 2-(5-chloro-1H-pyrrolo[3,2-b]pyridin-1-yl)-N-hydroxy-3-phenylpropanamide] |
| > 0.5 µM |  | O=C(NO)C(Cc1ccccc1)n1ccc2cc(Cl)ncc21 (centres unmarked) [Compound I-0194, 2-(5-chloro-1H-pyrrolo[2,3-c]pyridin-1-yl)-N-hydroxy-3-phenylpropanamide] |
| 0.2 to 0.5 µM |  | O=C(NO)C(Cc1ccccc1)n1ccc2cc(Cl)cnc21 (centres unmarked) [Compound I-0195, 2-(5-chloro-1H-pyrrolo[2,3-b]pyridin-1-yl)-N-hydroxy-3-phenylpropanamide] |
| 0.2 to 0.5 µM |  | O=C(NO)C(Cc1ccccc1)n1ccc2c(Cl)nccc21 (centres unmarked) [Compound I-0196, 2-(4-chloro-1H-pyrrolo[3,2-c]pyridin-1-yl)-N-hydroxy-3-phenylpropanamide] |
| ≤ 0.05 µM |  | O=C(NO)C(Cc1ccccc1)n1cc2ccnc(-c3cncnc3)c2n1 (centres unmarked) [Compound I-0198, N-hydroxy-3-phenyl-2-(7-(pyrimidin-5-yl)-2H-pyrazolo[3,4-c]pyridin-2-yl)propanamide] |
| ≤ 0.05 µM |  | Cn1nccc1-c1nccc2cn(C(Cc3ccccc3)C(=O)NO)nc12 (centres unmarked) [Compound I-0199, N-hydroxy-2-(7-(1-methyl-1H-pyrazol-5-yl)-2H-pyrazolo[3,4-c]pyridin-2-yl)-3-phenylpropanamide] |
| 0.2 to 0.5 µM |  | O=C(NO)C(Cc1ccccc1)n1ncc2c1CCCC2 (centres unmarked) [Compound I-0201, N-hydroxy-3-phenyl-2-(4,5,6,7-tetrahydro-1H-indazol-1-yl)propanamide] |
|  | 0.039 µM | Cn1nc(C(Cc2ccccc2)C(=O)NO)c2ccc(Cl)cc21 (centres unmarked) [Compound I-0202, 2-(6-Chloro-1-methyl-1H-indazol-3-yl)-N-hydroxy-3-phenylpropanamide] |
| 0.05 to 0.2 µM |  | Cn1nccc1-c1ccc2c(C(Cc3ccccc3)C(=O)NO)nn(C)c2c1 (centres unmarked) [Compound I-0203, N-hydroxy-2-(1-methyl-6-(1-methyl-1H-pyrazol-5-yl)-1H-indazol-3-yl)-3-phenylpropanamide] |
| ≤ 0.05 µM |  | O=C(NO)C(Cc1ccccc1)n1nc2c(-c3cncnc3)nccc2c1C#CC1CC1 (centres unmarked) [Compound I-0207, 2-(3-(cyclopropylethynyl)-7-(pyrimidin-5-yl)-2H-pyrazolo[3,4-c]pyridin-2-yl)-N-hydroxy-3-phenylpropanamide] |

More lines, now with the values behind:

| Structure (SMILES) | IC50 [1] | IC50 (HDAC8, read-out: IC50) |
| --- | --- | --- |
| O=C(NO)C(Cc1ccccc1)n1cc2cccc(CN3CCC(N4CCOCC4)CC3)c2n1 (centres unmarked) [Compound I-0185, N-hydroxy-2-(7-((4-morpholinopiperidin-1-yl)methyl)-2H-indazol-2-yl)-3-phenylpropanamide] | > 0.5 µM |  |
| O=C(NO)C(Cc1ccccc1)n1cc2cccc(CN3CCC4(CC3)COC4)c2n1 (centres unmarked) [Compound I-0186, 2-(7-(2-oxa-7-azaspiro[3.5]nonan-7-ylmethyl)-2H-indazol-2-yl)-N-hydroxy-3-phenylpropanamide] | > 0.5 µM |  |
| O=C(NO)C(Cc1ccccc1)n1cc2cccc(CN3CCC4(CCOCC4)CC3)c2n1 (centres unmarked) [Compound I-0187, 2-(7-(3-oxa-9-azaspiro[5.5]undecan-9-ylmethyl)-2H-indazol-2-yl)-N-hydroxy-3-phenylpropanamide] | > 0.5 µM |  |
| CN1CCN(Cc2cccc3cn(C(Cc4ccccc4)C(=O)NO)nc23)CC1 (centres unmarked) [Compound I-0188, N-hydroxy-2-(7-((4-methylpiperazin-1-yl)methyl)-2H-indazol-2-yl)-3-phenylpropanamide] | > 0.5 µM |  |
| O=C(NO)C(Cc1ccccc1)n1cc2cccc(CN3CCC(F)(F)CC3)c2n1 (centres unmarked) [Compound I-0189, 2-(7-((4,4-difluoropiperidin-1-yl)methyl)-2H-indazol-2-yl)-N-hydroxy-3-phenylpropanamide] | 0.2 to 0.5 µM |  |
| O=C(NO)C(Cc1ccccc1)n1cc2cccc(CN3CCCC(F)(F)C3)c2n1 (centres unmarked) [Compound I-0190, 2-(7-((3,3-difluoropiperidin-1-yl)methyl)-2H-indazol-2-yl)-N-hydroxy-3-phenylpropanamide] | 0.2 to 0.5 µM |  |
| O=C(NO)C(Cc1ccccc1)n1cc2cccc(CN3CCC(C(F)(F)F)CC3)c2n1 (centres unmarked) [Compound I-0191, N-hydroxy-3-phenyl-2-(7-((4-(trifluoromethyl)piperidin-1-yl)methyl)-2H-indazol-2-yl)propanamide] | > 0.5 µM |  |
| CN1CCN(Cc2cccc3cn(C(Cc4ccccc4)C(=O)NO)nc23)CC1=O (centres unmarked) [Compound I-0192, N-hydroxy-2-(7-((4-methyl-3-oxopiperazin-1-yl)methyl)-2H-indazol-2-yl)-3-phenylpropanamide] | 0.05 to 0.2 µM |  |
| O=C(NCCC1CCOCC1)c1cccc2c(C#CC3CC3)n(C(Cc3ccccc3)C(=O)NO)nc12 (centres unmarked) [Compound I-0197, 2-[1-Benzyl-2-(hydroxyamino)-2-oxethyl]-3-(cyclopropylethynyl)-N-[2-(tetrahydro-2H-pyran-4-yl)ethyl]-2H-indazole-7-carboxamide] | ≤ 0.05 µM | 0.016 µM |
| O=C(NO)C(Cc1ccccc1)n1cc2c(n1)CCCC2 (centres unmarked) [Compound I-0200, N-hydroxy-3-phenyl-2-(4,5,6,7-tetrahydro-2H-indazol-2-yl)propanamide] | 0.2 to 0.5 µM |  |
| Cn1nc(C(Cc2ccccc2)C(=O)NO)c2ccc(-c3cncnc3)cc21 (centres unmarked) [Compound I-0204, N-hydroxy-2-(1-methyl-6-pyrimidin-5-yl-1H-indazol-3-yl)-3-phenylpropanamide] | 0.05 to 0.2 µM | 0.084 µM |
| Cn1nc(C(Cc2ccccc2)C(=O)NO)c2ccc(-c3ccncc3)cc21 (centres unmarked) [Compound I-0205, N-hydroxy-2-(1-methyl-6-(pyridin-4-yl)-1H-indazol-3-yl)-3-phenylpropanamide] | 0.05 to 0.2 µM |  |
| O=C(NO)C(Cc1ccccc1)n1nc2c(c1C#CC1CC1)CCCC2 (centres unmarked) [Compound I-0206, 2-(3-(cyclopropylethynyl)-4,5,6,7-tetrahydro-2H-indazol-2-yl)-N-hydroxy-3-phenylpropanamide] | ≤ 0.05 µM |  |
